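The compound was tested at five concentrations on cells cultured in 96-well plates, with a 48-hour exposure period. The concentration for 50% growth inhibition is given as GI50. TGI: total growth inhibition.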
Columns and labels:
Assay in all cases: NCI tumour cell line growth inhibition, 48 h; in the data active = GI50 below about 0.43 µM; inactive = the rest
HT29 colon = tested on: HT29 colon
MDA-MB-231 breast = tested on: MDA-MB-231 breast
NCI-H522 lung = tested on: NCI-H522 lung
RXF 393 renal = tested on: RXF 393 renal
CCRF-CEM leukemia = tested on: CCRF-CEM leukemia
SK-MEL-5 melanoma = tested on: SK-MEL-5 melanoma
MDA-MB-468 breast = tested on: MDA-MB-468 breast
SF-268 CNS = tested on: SF-268 CNS
NCI-H460 lung = tested on: NCI-H460 lung
SR leukemia = tested on: SR leukemia
PC-3 prostate = tested on: PC-3 prostate
COLO 205 colon = tested on: COLO 205 colon
NCI-H23 lung = tested on: NCI-H23 lung
DU-145 prostate = tested on: DU-145 prostate
NCI-H226 lung = tested on: NCI-H226 lung
MOLT-4 leukemia = tested on: MOLT-4 leukemia
SNB-75 CNS = tested on: SNB-75 CNS
IGROV1 ovarian = tested on: IGROV1 ovarian
KM12 colon = tested on: KM12 colon
LOX IMVI melanoma = tested on: LOX IMVI melanoma
SW-620 colon = tested on: SW-620 colon
SF-539 CNS = tested on: SF-539 CNS
OVCAR-8 ovarian = tested on: OVCAR-8 ovarian
HL-60(TB) leukemia = tested on: HL-60(TB) leukemia
OVCAR-4 ovarian = tested on: OVCAR-4 ovarian
SK-OV-3 ovarian = tested on: SK-OV-3 ovarian
EKVX NSCLC = tested on: EKVX NSCLC
T-47D breast = tested on: T-47D breast
M14 melanoma = tested on: M14 melanoma
SK-MEL-28 melanoma = tested on: SK-MEL-28 melanoma
HCC-2998 colon = tested on: HCC-2998 colon
UACC-257 melanoma = tested on: UACC-257 melanoma
K-562 leukemia = tested on: K-562 leukemia
MALME-3M melanoma = tested on: MALME-3M melanoma
HOP-92 NSCLC = tested on: HOP-92 NSCLC
U251 CNS = tested on: U251 CNS
HOP-62 NSCLC = tested on: HOP-62 NSCLC
NCI/ADR-RES ovarian = tested on: NCI/ADR-RES ovarian
TK-10 renal = tested on: TK-10 renal
SN12C renal = tested on: SN12C renal
MDA-MB-435 = tested on: MDA-MB-435
SNB-19 CNS = tested on: SNB-19 CNS
A549 NSCLC = tested on: A549 NSCLC
CAKI-1 renal = tested on: CAKI-1 renal
SK-MEL-2 melanoma = tested on: SK-MEL-2 melanoma
ACHN renal = tested on: ACHN renal
UO-31 renal = tested on: UO-31 renal
A498 renal = tested on: A498 renal
786-0 renal = tested on: 786-0 renal
BT-549 breast = tested on: BT-549 breast
RPMI-8226 leukemia = tested on: RPMI-8226 leukemia
HS 578T breast = tested on: HS 578T breast
HCT-15 colon = tested on: HCT-15 colon
MCF7 breast = tested on: MCF7 breast
HCT-116 colon = tested on: HCT-116 colon
SF-295 CNS = tested on: SF-295 CNS
UACC-62 melanoma = tested on: UACC-62 melanoma
OVCAR-5 ovarian = tested on: OVCAR-5 ovarian
OVCAR-3 ovarian = tested on: OVCAR-3 ovarian

O=C(COc1ccc(NC(=O)Nc2ccc(Cl)cc2)cc1)N=Nc1c(O)[nH]c2ccc([N+](=O)[O-])cc12
15.3 µM: TGI (SF-539 CNS)
43.2 µM: TGI (A498 renal)
20.3 µM: TGI (SK-MEL-2 melanoma)
30.6 µM: TGI (HOP-62 NSCLC)
30.7 µM: TGI (IGROV1 ovarian)
19.6 µM: TGI (U251 CNS)
29.8 µM: TGI (BT-549 breast)
34.6 µM: TGI (786-0 renal)
> 100 µM: TGI (HT29 colon) | TGI (SK-MEL-5 melanoma) | TGI (SR leukemia) | TGI (PC-3 prostate) | TGI (COLO 205 colon) | TGI (DU-145 prostate) | TGI (MOLT-4 leukemia) | TGI (SW-620 colon) | TGI (OVCAR-8 ovarian) | TGI (HL-60(TB) leukemia) | TGI (EKVX NSCLC) | TGI (M14 melanoma) | TGI (HCC-2998 colon) | TGI (UACC-257 melanoma) | TGI (K-562 leukemia) | TGI (NCI/ADR-RES ovarian) | TGI (A549 NSCLC) | TGI (CAKI-1 renal) | TGI (ACHN renal) | TGI (UO-31 renal) | TGI (RPMI-8226 leukemia) | TGI (HCT-15 colon) | TGI (OVCAR-5 ovarian)
23.9 µM: TGI (SN12C renal)
8.18 µM: TGI (CCRF-CEM leukemia)
33.9 µM: TGI (NCI-H460 lung)
24.2 µM: TGI (NCI-H226 lung) | TGI (SNB-75 CNS)
18.3 µM: TGI (NCI-H23 lung)
15.8 µM: TGI (HS 578T breast)
9.44 µM: TGI (MDA-MB-231 breast)
12.4 µM: TGI (HOP-92 NSCLC)
59.7 µM: TGI (TK-10 renal)
8.74 µM: TGI (MALME-3M melanoma)
6.58 µM: TGI (OVCAR-3 ovarian)
11 µM: TGI (KM12 colon)
4.82 µM: TGI (MDA-MB-468 breast)
inactive: GI50 (HT29 colon) 6.81 µM | GI50 (MDA-MB-231 breast) 2.84 µM | GI50 (NCI-H522 lung) 2.4 µM | GI50 (RXF 393 renal) 5.69 µM | GI50 (CCRF-CEM leukemia) 2.56 µM | GI50 (SK-MEL-5 melanoma) 12.4 µM | GI50 (MDA-MB-468 breast) 1.98 µM | GI50 (SF-268 CNS) 4.81 µM | GI50 (NCI-H460 lung) 3.07 µM | GI50 (SR leukemia) 18 µM | GI50 (PC-3 prostate) 6.59 µM | GI50 (COLO 205 colon) 5.21 µM | GI50 (NCI-H23 lung) 5.79 µM | GI50 (DU-145 prostate) 10.3 µM | GI50 (NCI-H226 lung) 4.12 µM | GI50 (MOLT-4 leukemia) 5.25 µM | GI50 (SNB-75 CNS) 4.82 µM | GI50 (IGROV1 ovarian) 13.6 µM | GI50 (KM12 colon) 1.95 µM | GI50 (LOX IMVI melanoma) 3.21 µM | GI50 (SW-620 colon) 3.34 µM | GI50 (SF-539 CNS) 3.36 µM | GI50 (OVCAR-8 ovarian) 12.7 µM | GI50 (HL-60(TB) leukemia) > 100 µM | GI50 (OVCAR-4 ovarian) 3.95 µM | GI50 (SK-OV-3 ovarian) 21.6 µM | GI50 (EKVX NSCLC) 22.3 µM | GI50 (T-47D breast) 4 µM | GI50 (M14 melanoma) 5.83 µM | GI50 (SK-MEL-28 melanoma) 2.49 µM | GI50 (HCC-2998 colon) 6.18 µM | GI50 (UACC-257 melanoma) 20.1 µM | GI50 (K-562 leukemia) 8.47 µM | GI50 (MALME-3M melanoma) 2.6 µM | GI50 (HOP-92 NSCLC) 3.01 µM | GI50 (U251 CNS) 6.42 µM | GI50 (HOP-62 NSCLC) 14.3 µM | GI50 (NCI/ADR-RES ovarian) > 100 µM | GI50 (TK-10 renal) 23.7 µM | GI50 (SN12C renal) 4.74 µM | GI50 (MDA-MB-435) 3.7 µM | GI50 (SNB-19 CNS) 10.1 µM | GI50 (A549 NSCLC) > 100 µM | GI50 (CAKI-1 renal) 69.7 µM | GI50 (SK-MEL-2 melanoma) 7.09 µM | GI50 (ACHN renal) 26.8 µM | GI50 (UO-31 renal) > 100 µM | GI50 (A498 renal) 21.1 µM | GI50 (786-0 renal) 15.6 µM | GI50 (BT-549 breast) 14.2 µM | GI50 (RPMI-8226 leukemia) 7.3 µM | GI50 (HS 578T breast) 2.96 µM | GI50 (HCT-15 colon) > 100 µM | GI50 (MCF7 breast) 2.06 µM | GI50 (HCT-116 colon) 3.65 µM | GI50 (SF-295 CNS) 16.5 µM | GI50 (UACC-62 melanoma) 6.99 µM | GI50 (OVCAR-5 ovarian) 24 µM | GI50 (OVCAR-3 ovarian) 2.25 µM
11.5 µM: TGI (LOX IMVI melanoma)
26.8 µM: TGI (RXF 393 renal)
8.03 µM: TGI (NCI-H522 lung)
13.6 µM: TGI (HCT-116 colon)
26.6 µM: TGI (UACC-62 melanoma)
23.6 µM: TGI (SNB-19 CNS)
20.5 µM: TGI (MDA-MB-435)
7.97 µM: TGI (SK-MEL-28 melanoma)
24.8 µM: TGI (OVCAR-4 ovarian)
6.36 µM: TGI (MCF7 breast)
34 µM: TGI (SF-295 CNS)
55.8 µM: TGI (SK-OV-3 ovarian)
18.7 µM: TGI (SF-268 CNS)
30.2 µM: TGI (T-47D breast)
